Experimental data from patent publication US20090325959A1 (priority 2008, published 2009).
Read-outs that look alike come from different tables or passages of the source.

How the values were obtained:
human neutrophils = test: Human neutrophil chemotaxis induced by fMLP (modified Boyden chamber); assay type: cell-based
How it was run: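 Neutrophils from healthy volunteers' blood, isolated by Ficoll-paque centrifugation, dextran sedimentation and hypotonic red-cell lysis. Migration measured in a modified Boyden chamber (3 μm polycarbonate membrane) toward 1 μM fMLP for 1 h at 37° C., 5% CO2. Compounds tested in dose response.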

[1] = Compound concentrations in lungs of ova-sensitized, ova-challenged mice post IP, PO and IT administration; assay type: in vivo; conditions: male, Balb/c, mouse, lung, PO 15 μmol/kg, n = 9 or 10, read-out: Lung concentration (plasma corrected); for concentration at 3 h: BD model, time point 3 h
Protocol: Additionally, compound concentrations were determined in the plasma and lungs of male, ovalbumin-sensitized, Balb/c mice from a murine model of asthma. Test compounds were formulated in water or 1% polysorbate 80 and dosed at 15 μmol/kg for intraperitoneal (IP) or oral (PO) administration or formulated for intratracheal (IT) administration and dosed at 5 μmol/kg, which directly targets the lungs. Following completion of the in vivo study, mice were euthanized and blood and plasma collected approximately 2.5-3 hours post administration of test compound for bronchodialator (BD) studies and 24 hours post administration for anti-inflamatory (AI) studies. Lungs were homogenized in Matrix A lysing tubes using a FastPrep 24 tissue and cell homogenizer (MP Biomedicals, Solon, Ohio). Both plasma samples and lung extracts were assayed for compound concentrations using an on-line, solid phase extraction LC/MS/MS system. The actual lung tissue concentrations of each compound in mouse were extrapolated from the lung and plasma concentrations, data are shown in Table 11. The results of a set of experiments using unsensitized mice and collecting only plasma 15 minutes post administration of test compounds are shown in Table 12.

ROCK2 = target: T1, ROCK2 (Homo sapiens, UniProt O75116); test: Rho kinase inhibition assay (IMAP fluorescence polarization), ROCK2; assay type: biochemical;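 further: kinase reaction started with 10 µM ATP and run 60 min at room temperature, then phosphorylated substrate captured on IMAP beads for 30 min and fluorescence polarization read in mP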
T1 construct: purchased Upstate/Chemicon 14-451
Protocol: (§2) Following the pre-incubation, 10 μM ATP was added to initiate the reaction. After 60 minutes at room temperature, Molecular Devices IMAP™ binding solution was added to bind phosphorylated substrate. After 30 minutes of incubation in the presence of the IMAP™ beads, the fluorescence polarization was read and the ratio was reported as mP. IC50 values for compounds and EC50 values for ATP were calculated using the Prism software from Graphpad.

[2] = Rat oral pharmacokinetics (plasma); assay type: in vivo; conditions: 20-30 μmol/kg; for Vz_F / AUC(0-t): mean n = 3; for AUC(0-t) / Cmax / Tmax / half-life: male, CD Sprague Dawley; for Cmax: mean n = 3, read-out: Cmax; for Tmax: mean n = 3, read-out: Tmax; for half-life: mean n = 3, read-out: t½ (converted)
ROCK1 = target: T2, ROCK1 (Homo sapiens, UniProt Q13464); test: Rho kinase inhibition assay (IMAP fluorescence polarization), ROCK1; assay type: biochemical;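 further: kinase reaction run 60 min at room temperature, then phosphorylated substrate captured on IMAP beads for 30 min, with fluorescence polarization read in mP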
T2 construct: purchased Upstate/Chemicon 14-601
Protocol: as §2

ERK1 = target: T3, ERK1 (Homo sapiens, UniProt P27361); test: Kinase panel screen (KinaseProfiler), ERK1; assay type: biochemical; conditions: 10 μM ATP
T3 construct: purchased Upstate, Millipore Bioscience Division (KinaseProfiler service)
Protocol: (§1) Compounds of Formulae I and II were examined for activity against a selected panel of kinases using the KinaseProfiler™ enzyme profiling services (Upstate, Millipore Bioscience Division). Percent kinase activity at 10 μM and 1 μM test compound and 10 μM ATP was determined against 40 wild-type recombinant human kinases according to Upstate's standard protocol: ASK1, BTK, CSK, c-RAF, GCK, GSK3β, IKKα, IKKβ, IRAK1, IRAK4, JNK1α1, JNK2α2, JNK3, ERK1, ERK2, MAPKAP-K2, MAPKAP-K3, MEK1, MKK4, MKK6, MKK7β, Mnk2, MSK1, PAK3, PDK1, PRAK, ROCK1, Rsk2, SAPK2a, SAPK2b, SAPK3, SAPK4, SRPK1, SRPK2, Syk, TAK1, TBK1, PI3-Kβ, PI3-Kγ, PI3-Kδ.

IRAK4 = target: T4, IRAK4 (Homo sapiens, UniProt Q9NWZ3); test: Kinase panel screen (KinaseProfiler), IRAK4; assay type: biochemical; conditions: 10 μM ATP
T4 construct: purchased Upstate, Millipore Bioscience Division (KinaseProfiler service)
T4 sequence (Q9NWZ3 1-460): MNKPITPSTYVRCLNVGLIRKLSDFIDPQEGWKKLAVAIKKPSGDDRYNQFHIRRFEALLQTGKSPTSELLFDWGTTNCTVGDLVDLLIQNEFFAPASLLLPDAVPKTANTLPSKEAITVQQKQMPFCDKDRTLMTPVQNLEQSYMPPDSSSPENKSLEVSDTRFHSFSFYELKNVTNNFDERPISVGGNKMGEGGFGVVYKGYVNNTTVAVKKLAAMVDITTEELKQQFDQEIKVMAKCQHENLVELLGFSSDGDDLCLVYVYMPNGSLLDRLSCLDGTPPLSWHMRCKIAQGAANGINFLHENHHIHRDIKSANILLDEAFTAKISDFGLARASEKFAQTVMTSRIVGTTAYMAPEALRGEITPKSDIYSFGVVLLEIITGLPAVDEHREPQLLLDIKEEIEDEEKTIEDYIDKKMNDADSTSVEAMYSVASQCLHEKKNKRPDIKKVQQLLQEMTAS
Protocol: as §1

GCK = target: T5, GCK (Homo sapiens, UniProt Q12851); test: Kinase panel screen (KinaseProfiler), GCK; assay type: biochemical
T5 construct: purchased Upstate, Millipore Bioscience Division (KinaseProfiler service)
T5 sequence (Q12851 1-820): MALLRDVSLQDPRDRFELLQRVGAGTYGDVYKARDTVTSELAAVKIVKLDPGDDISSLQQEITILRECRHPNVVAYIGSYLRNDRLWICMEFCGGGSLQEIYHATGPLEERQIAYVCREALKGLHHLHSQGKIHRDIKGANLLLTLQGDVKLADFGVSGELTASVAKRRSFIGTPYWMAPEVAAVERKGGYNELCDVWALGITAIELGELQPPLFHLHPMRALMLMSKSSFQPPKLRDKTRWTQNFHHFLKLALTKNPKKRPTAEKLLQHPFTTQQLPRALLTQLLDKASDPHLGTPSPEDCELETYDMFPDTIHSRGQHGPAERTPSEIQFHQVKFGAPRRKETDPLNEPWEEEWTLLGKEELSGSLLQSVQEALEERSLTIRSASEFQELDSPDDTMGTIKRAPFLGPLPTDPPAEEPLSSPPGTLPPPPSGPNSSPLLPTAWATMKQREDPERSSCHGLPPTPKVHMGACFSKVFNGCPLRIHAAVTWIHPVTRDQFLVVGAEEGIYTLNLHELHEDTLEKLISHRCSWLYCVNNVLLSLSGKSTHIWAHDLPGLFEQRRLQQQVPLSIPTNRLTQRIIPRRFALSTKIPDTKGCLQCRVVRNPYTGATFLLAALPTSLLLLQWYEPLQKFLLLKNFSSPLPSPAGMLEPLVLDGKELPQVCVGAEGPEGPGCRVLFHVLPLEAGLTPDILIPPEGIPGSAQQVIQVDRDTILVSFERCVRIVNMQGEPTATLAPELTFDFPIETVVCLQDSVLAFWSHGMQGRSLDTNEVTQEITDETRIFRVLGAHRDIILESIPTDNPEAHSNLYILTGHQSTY
Protocol: as §1

p70S6K human enzyme = target: T6, p70S6K human enzyme (Homo sapiens, UniProt P23443, T412E); test: p70S6K inhibition assay (IMAP FP); assay type: biochemical;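 further: kinase reaction run at room temperature, phosphorylated substrate captured on IMAP beads and read as fluorescence polarization in mP, IC50 then converted to Ki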
T6 construct: purchased Upstate Chemicon 14-486

[3] = test system: A-10 rat thoracic aorta cells; test: PDGF-stimulated smooth muscle cell proliferation assay (BrdU incorporation); assay type: cell-based; conditions: A-10 cells, 10 ng/mL PDGF, BrdU incorporation, percent of total challenge-stimulated proliferation; for Percent of PDGF Induced Proliferation at 1 μM Avg: 1 μM test compound; for Percent of PDGF Induced Proliferation at 10 μM Avg: 10 μM test compound;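 on all read-outs here: cells kept in serum-free medium, BrdU allowed to incorporate for 24 h, then incorporated label detected fluorometrically with an anti-BrdU antibody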
Mnk2 = target: T7, Mnk2 (Homo sapiens, UniProt Q9HBH9); test: Kinase panel screen (KinaseProfiler), Mnk2; assay type: biochemical; conditions: 10 μM ATP
T7 construct: purchased Upstate, Millipore Bioscience Division (KinaseProfiler service)
Protocol: as §1

[4] = Compound plasma concentrations in unsensitized mice at 15 min post administration; assay type: in vivo; conditions: mouse, 15 μmol/kg; mean compound plasma concentration in mice at 15 minutes post oral administration; read-out: Mouse Oral PK
IRAK1 = target: T8, IRAK1 (Homo sapiens, UniProt P51617); test: Kinase panel screen (KinaseProfiler), IRAK1; assay type: biochemical; conditions: 10 μM ATP
T8 construct: purchased Upstate, Millipore Bioscience Division (KinaseProfiler service)
Protocol: as §1

ERK2 = target: T9, ERK2 (Homo sapiens, UniProt P28482); test: Kinase panel screen (KinaseProfiler), ERK2; assay type: biochemical
T9 construct: purchased Upstate, Millipore Bioscience Division (KinaseProfiler service)
Protocol: as §1

Akt3 human enzyme = target: T10, Akt3 human enzyme (Homo sapiens, UniProt Q9Y243); test: Akt3 inhibition assay (IMAP FP); assay type: biochemical;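 further: kinase reaction run 60 min at room temperature after 30 µM ATP start, phosphorylated substrate captured on IMAP beads and read as fluorescence polarization (mP)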
T10 construct: purchased Upstate Chemicon 14-502

[5] = test system: ova-sensitized, ova-challenged mice; test: Prevention of airway hyperreactivity (Penh, methacholine) in mouse ovalbumin sensitization model; assay type: in vivo
Protocol: The anti-inflammatory dosing paradigm consists of dosing the animals once a day starting on day 27 and finishing on either day 30 or 31 (1 hr prior to the aerosolized ovalbumin challenges on days 28 to 30) but not on day 32 when hyperreactivity evaluation occurs. […] Exposure to the methacholine doses consisted of a 3 minute period during which a nebulizer was aerosolizing the methacholine and an additional 3 minute period following the cessation of nebulization. […] Enhanced pause (Penh), a unitless index of airway hyperreactivity, is derived from the expiratory side of the respiratory waveform measured via the plethysmograph and is used as an indirect measure of airway resistance and hyperreactivity. […] Following the methacholine dose response, BALF was collected and all animals were anesthetized, bled and euthanized. […] The Penh value at each of the dose levels of methacholine represents the 6-minute average response. Change from baseline (CFB) in Penh was calculated at each methacholine dose and the area under the curve (AUC) for these CFB values was calculated using the trapezoidal rule. This same approach was applied for each mouse across multiple experiments. […] Data from equal experimental conditions across experiments performed on different days were pooled for statistical analysis and data reporting. […] A random intercept for each experiment was assumed to account for possible similarities of the results obtained from a given experiment (i.e., as a “blocking effect”). […] For FIG. 9, linear AUC values from compound treated mice were reported as a percent of linear AUC values from vehicle-treated ovalbumin-sensitized/ovalbumin-challenged (asthmatic) mice.

[6] = test system: ova-sensitized, ova-challenged mice; test: Mouse ovalbumin sensitization model, in vivo anti-inflammatory activity (BALF eosinophils and cytokines); conditions: dosed orally to day 31, anti-inflammatory dosing paradigm; FIG. 4
Protocol: Male BALB/c mice were ordered from Charles River Laboratories (Raleigh, N.C.). The animals were approximately 19 to 21 grams at time of receipt. Upon arrival, the animals were randomized into groups of five males per cage and assigned to a dosing group. Animals were quarantined for 7 days under test conditions. They were observed daily for general health status and ability to adapt to the water bottles. Animals were sensitized on day 0 and 14 of study by an intraperitoneal injection with 20 μg of ovalbumin (ova) and 2.0 mg aluminum hydroxide (alum) which initiates the development of a specific T-helper (Th) cells type 2 resulting in asthmatic animals (denoted as Ova in the figures). One group of animals received an injection of saline to use as control animals (denoted as normal in the figures). […] Aerosol challenge consists of using an Aerogen Aeroneb nebulizer and controller with a particle size of 4-6 μm mass median aerodynamic diameter (MMAD) with a distribution of 400 μl per minute. This aerosol challenge is necessary to target the Th2-driven allergic inflammation in the lower airways.
The anti-inflammatory dosing paradigm (FIG. 3) was utilized to evaluate the anti-inflammatory effects of experimental compounds. […] On day 32 of the experiment, after measurement of airway hyperreactivity, BALF was collected and all animals were anesthetized, bled and euthanized.
Bronchoalveolar lavage fluid (BALF) was collected by infusing 3.0 ml of saline with 10% fetal calf serum into the lungs via the trachea and then withdrawing the fluid. The total amount of cells/ml of BALF fluid was determined via manual cell count on hemocytometer. The BALF was centrifuged, supernatant removed and analyzed for cytokine concentrations as described below, and cell pellet reconstituted in 500 μL of fluid. Cytospin slides were prepared from the cell pellet using 100 μL of fluid and spinning samples for 5 minutes at 5000 rpms in a cytospin centrifuge. Following Hema3 stain, relative percentages of individual leukocytes were determined on a 200 cell count for each sample. The final concentration of individual leukocyte cell types per ml of BALF was determined by multiplication of the relative percentage of individual leukocytes with the total amount of cells/ml of BALF fluid.
The concentrations of cytokines in the BALF samples were determined using commercially available Bio-plex kits (Bio-Rad) for the detection of mouse IL-5, IL-13, and Eotaxin. The analysis of cytokine levels was measured using the Bio-Plex 200 (Bio-Rad) system according to the manufacturer's instructions.

[7] = Neutrophil, 1 h, 1 μM fMLP challenge, one hour, read-out: Chemotaxis Avg. IC50
[8] = 10 μM ATP, read-out: ROCK2 Ki, Avg
[9] = 30 μM ATP, Ki=IC50/(1+([ATP Challenge]/EC50 ATP)), read-out: p70S6K Ki, Avg
[10] = average Ki, read-out: p70S6K Ki
[11] = 30 μM ATP, Ki=IC50/(1+([ATP Challenge]/EC50 ATP)), read-out: Akt3 Ki, Avg

T6 sequence (P23443 1-421 T412E limits assumed): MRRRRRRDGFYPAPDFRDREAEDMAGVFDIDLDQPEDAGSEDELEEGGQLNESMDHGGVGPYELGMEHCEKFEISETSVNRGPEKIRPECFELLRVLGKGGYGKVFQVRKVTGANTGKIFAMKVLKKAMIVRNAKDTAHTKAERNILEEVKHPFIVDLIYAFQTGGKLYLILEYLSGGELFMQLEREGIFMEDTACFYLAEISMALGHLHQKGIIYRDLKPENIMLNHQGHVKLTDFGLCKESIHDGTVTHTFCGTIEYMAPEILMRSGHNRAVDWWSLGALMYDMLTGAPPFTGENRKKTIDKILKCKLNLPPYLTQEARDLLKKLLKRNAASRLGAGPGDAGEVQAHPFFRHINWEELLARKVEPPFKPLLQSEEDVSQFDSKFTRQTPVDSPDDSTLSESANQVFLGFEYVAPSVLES
T1 sequence (O75116 11-552 limits assumed): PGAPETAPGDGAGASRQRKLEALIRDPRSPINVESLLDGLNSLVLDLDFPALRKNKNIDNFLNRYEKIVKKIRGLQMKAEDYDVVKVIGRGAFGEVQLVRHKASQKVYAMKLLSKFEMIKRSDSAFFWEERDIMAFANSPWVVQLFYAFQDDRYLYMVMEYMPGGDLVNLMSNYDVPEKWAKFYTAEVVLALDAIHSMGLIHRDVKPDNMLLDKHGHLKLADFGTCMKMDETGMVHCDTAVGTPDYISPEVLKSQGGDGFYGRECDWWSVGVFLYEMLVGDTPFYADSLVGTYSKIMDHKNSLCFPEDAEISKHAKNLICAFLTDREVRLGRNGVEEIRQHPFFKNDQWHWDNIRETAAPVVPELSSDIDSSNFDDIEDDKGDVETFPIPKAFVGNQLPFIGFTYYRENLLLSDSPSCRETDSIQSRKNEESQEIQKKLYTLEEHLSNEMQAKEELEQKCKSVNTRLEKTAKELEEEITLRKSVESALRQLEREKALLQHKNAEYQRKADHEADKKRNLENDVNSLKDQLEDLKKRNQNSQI
T10 sequence (Q9Y243 whole entry): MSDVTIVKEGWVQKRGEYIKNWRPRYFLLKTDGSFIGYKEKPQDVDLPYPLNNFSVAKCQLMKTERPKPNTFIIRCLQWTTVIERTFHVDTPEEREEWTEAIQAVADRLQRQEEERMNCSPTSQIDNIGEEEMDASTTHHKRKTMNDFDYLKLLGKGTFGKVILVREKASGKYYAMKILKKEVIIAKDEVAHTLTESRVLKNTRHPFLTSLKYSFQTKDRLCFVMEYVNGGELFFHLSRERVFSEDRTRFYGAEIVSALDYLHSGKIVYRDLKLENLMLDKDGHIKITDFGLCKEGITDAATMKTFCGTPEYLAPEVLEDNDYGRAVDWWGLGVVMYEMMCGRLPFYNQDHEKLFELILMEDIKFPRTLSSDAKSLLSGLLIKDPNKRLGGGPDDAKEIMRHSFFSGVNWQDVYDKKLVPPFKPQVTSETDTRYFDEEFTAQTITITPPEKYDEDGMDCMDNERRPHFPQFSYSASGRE
T2 sequence (Q13464 17-535 limits assumed): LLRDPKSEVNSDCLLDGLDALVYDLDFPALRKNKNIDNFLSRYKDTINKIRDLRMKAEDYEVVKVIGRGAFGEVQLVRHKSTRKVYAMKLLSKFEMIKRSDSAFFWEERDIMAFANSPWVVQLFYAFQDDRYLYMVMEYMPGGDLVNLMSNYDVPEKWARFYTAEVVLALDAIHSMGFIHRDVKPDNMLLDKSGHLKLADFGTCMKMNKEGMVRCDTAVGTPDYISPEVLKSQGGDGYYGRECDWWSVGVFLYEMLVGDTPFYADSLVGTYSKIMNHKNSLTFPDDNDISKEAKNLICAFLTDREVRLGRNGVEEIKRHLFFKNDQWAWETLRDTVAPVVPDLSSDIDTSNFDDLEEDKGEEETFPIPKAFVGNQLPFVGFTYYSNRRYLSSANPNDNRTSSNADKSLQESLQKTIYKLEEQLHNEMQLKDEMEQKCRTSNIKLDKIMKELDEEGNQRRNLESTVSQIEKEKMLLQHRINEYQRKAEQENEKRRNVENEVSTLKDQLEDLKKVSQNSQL
T9 sequence (P28482 whole entry): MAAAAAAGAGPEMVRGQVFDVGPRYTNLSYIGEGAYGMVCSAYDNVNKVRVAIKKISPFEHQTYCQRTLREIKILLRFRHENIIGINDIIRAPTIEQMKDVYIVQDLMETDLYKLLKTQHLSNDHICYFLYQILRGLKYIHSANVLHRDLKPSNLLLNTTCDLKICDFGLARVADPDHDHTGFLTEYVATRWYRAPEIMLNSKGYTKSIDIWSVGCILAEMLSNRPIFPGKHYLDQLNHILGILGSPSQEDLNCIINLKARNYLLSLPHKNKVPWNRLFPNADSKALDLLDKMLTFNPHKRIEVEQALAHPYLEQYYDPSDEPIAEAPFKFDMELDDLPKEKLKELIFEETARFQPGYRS
T8 sequence (P51617 whole entry): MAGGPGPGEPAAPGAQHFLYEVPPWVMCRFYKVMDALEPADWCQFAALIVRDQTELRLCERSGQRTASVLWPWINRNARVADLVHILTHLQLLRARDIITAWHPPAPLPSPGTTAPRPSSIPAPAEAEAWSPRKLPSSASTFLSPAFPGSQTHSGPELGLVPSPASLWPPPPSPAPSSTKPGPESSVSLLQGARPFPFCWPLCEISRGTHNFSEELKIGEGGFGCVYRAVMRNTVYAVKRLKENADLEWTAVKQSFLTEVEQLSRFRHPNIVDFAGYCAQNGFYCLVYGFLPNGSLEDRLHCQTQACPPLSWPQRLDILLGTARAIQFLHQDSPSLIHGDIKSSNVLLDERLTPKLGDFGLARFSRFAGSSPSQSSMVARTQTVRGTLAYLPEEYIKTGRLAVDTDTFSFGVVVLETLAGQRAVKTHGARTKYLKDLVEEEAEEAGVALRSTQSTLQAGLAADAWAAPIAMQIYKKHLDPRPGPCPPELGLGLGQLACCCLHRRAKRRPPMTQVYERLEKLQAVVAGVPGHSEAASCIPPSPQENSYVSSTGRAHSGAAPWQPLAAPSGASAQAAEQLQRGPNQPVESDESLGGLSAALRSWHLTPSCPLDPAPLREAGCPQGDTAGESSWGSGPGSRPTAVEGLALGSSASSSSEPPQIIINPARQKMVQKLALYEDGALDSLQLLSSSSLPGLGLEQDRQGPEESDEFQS
T7 sequence (Q9HBH9 whole entry): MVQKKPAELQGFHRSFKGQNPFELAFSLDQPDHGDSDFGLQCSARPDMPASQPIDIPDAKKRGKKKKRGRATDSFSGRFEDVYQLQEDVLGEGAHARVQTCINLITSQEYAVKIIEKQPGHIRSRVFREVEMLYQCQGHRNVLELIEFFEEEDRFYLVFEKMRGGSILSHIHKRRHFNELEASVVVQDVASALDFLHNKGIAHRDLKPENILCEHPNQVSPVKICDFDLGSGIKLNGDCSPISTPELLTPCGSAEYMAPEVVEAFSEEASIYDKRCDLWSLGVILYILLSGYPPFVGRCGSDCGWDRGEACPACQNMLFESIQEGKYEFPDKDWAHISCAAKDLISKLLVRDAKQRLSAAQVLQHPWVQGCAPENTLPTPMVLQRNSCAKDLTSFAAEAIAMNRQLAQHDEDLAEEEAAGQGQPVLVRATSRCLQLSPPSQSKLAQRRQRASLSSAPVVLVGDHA
T3 sequence (P27361 whole entry): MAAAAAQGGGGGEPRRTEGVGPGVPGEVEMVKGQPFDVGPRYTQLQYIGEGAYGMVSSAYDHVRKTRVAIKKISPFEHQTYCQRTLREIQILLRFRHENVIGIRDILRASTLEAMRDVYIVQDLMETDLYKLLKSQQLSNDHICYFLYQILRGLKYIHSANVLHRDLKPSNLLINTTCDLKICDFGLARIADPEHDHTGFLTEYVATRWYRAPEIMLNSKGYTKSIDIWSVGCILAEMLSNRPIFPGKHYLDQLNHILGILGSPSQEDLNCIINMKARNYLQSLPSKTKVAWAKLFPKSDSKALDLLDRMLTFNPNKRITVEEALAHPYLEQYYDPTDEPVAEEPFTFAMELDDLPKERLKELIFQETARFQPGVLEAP

Structure (SMILES)	IC50 (human neutrophils; [7])	concentration at 3 h [1]	Ki (ROCK2; [8])	Vz_F [2]	AUC(0-t) [2]	Cmax [2]	Tmax [2]	half-life [2]	Ki (ROCK1; Avg, 10 μM ATP)	Ki (p70S6K human enzyme; [9])	Ki (p70S6K human enzyme; [10])	Percent of PDGF Induced Proliferation at 1 μM Avg [3]	Percent of PDGF Induced Proliferation at 10 μM Avg [3]	concentration at 15 min [4]	Ki (ROCK2; average Ki, read-out: ROCK2 Ki)	Ki (ROCK1; average Ki)	Ki (Akt3 human enzyme; [11])	Ki (Akt3 human enzyme; average Ki, read-out: Akt3 Ki)	other results
OCCOc1cccc(CN2CCC[C@@H](Nc3ccc4[nH]ncc4c3)C2)c1 [Compound 1.092, (R)-2-(3-((3-(1H-indazol-5-ylamino)piperidin-1-yl)methyl)phenoxy)ethanol]	2750 nM	152 nM	28.4 nM	19.0 L/kg	1.85 µM·h	2100 nM	0.25 h	1.74 h	191 nM	–	–	–	–	–	–	–	–	–	–
NC(=O)Cn1ccc2cc(CN3CCC[C@@H](Nc4ccc5[nH]ncc5c4)C3)ccc21 [Compound 1.162, (R)-2-(5-((3-(1H-indazol-5-ylamino)piperidin-1-yl)methyl)-1H-indol-1-yl)acetamide]	–	–	2.8 nM	–	–	–	–	–	15.2 nM	387 nM	387 nM	55.6%	42.5%	76 nM	2.8 nM	15.2 nM	92 nM	92 nM	activity at 1 µM (ERK1; 1 μM test compound, read-out: ERK1 Percent inhibition, 1 μM): 84%; activity at 10 µM (ERK1; 10 μM test compound, read-out: ERK1 Percent inhibition, 10 μM): 50%; activity at 1 µM (IRAK4; 1 μM test compound, read-out: IRAK4 Percent inhibition, 1 μM): 105%; activity at 10 µM (IRAK4; 10 μM test compound, read-out: IRAK4 Percent inhibition, 10 μM): 88%; GCK Percent inhibition, 1 μM (GCK): 93%; activity at 10 µM (GCK; 10 μM test compound, 10 μM ATP, read-out: GCK Percent inhibition, 10 μM): 75%; activity at 1 µM (Mnk2; 1 μM test compound, read-out: Mnk2 Percent inhibition, 1 μM): 111%; activity at 10 µM (Mnk2; 10 μM test compound, read-out: Mnk2 Percent inhibition, 10 μM): 65%; activity at 1 µM (IRAK1; 1 μM test compound, read-out: IRAK1 Percent inhibition, 1 μM): 100%; activity at 10 µM (IRAK1; 10 μM test compound, read-out: IRAK1 Percent inhibition, 10 μM): 97%; ERK2 Percent inhibition, 1 μM (ERK2): 89%; ERK2 Percent inhibition, 10 μM (ERK2): 60%
c1cc2cc(CN3CCC[C@@H](Nc4ccc5[nH]ncc5c4)C3)ccc2o1 [Compound 1.131, (R)-N-(1-(benzofuran-5-ylmethyl)piperidin-3-yl)-1H-indazol-5-amine]	1590 nM	7350 nM	3.8 nM	6.8 L/kg	10.8 µM·h	5610 nM	0.83 h	1.55 h	19.7 nM	503 nM	503 nM	61.7%	36.6%	445 nM	3.8 nM	19.7 nM	283 nM	283 nM	IC50 (human neutrophils; average IC50 for inhibition of fMLP-induced neutrophil chemotaxis, read-out: Chemotaxis IC50): 1600 nM; log10AUC (Penh) ([5]; 15 μmol/kg/oral, days 27 to 31): 2.0674; airway hyperreactivity to methacholine dosed on Day 32 ([5]; oral 15 μMol/kg once a day during days 27 to 31): prevention of airway hyperreactivity; concentration at 24 h ([1]; AI model, time point 24 h): 33 nM; Airway eosinophil infiltration (eosinophils per ml of BALF) [6]: reduced
